Test results published in US20110110879A1, “Compositions and Methods for Enhancing Eyelashes” (Avon Products, Inc., priority 2009, published 2011).
Blank lines part the entries; values can stand above or below the compound they belong to.

Experiments:
keratin 5 = test: In vitro assay for keratin 5 production in keratinocytes; format: cell-based; settings: concentration of 0.01%
[1] = tested on: lipid peroxidation in keratinocytes; test: In vitro assay of lipid peroxidation in keratinocytes; format: cell-based; settings: concentration of 0.001%
collagen IV = settings: fibroblasts; concentrations of 2×10^−5% and 2×10^−6%
fibronectin = settings: fibroblasts; concentrations of 2×10^−5% and 2×10^−6%
elastin = settings: fibroblasts; concentrations of 2×10^−5% and 2×10^−6%
MMP-3 = MMP-3 (Homo sapiens, UniProt P08254); test: In vitro assay of MMP-3 enzymatic activity; format: biochemical; settings: concentration of 2×10^−7%
Chain of MMP-3 (P08254 100-477, species assumed): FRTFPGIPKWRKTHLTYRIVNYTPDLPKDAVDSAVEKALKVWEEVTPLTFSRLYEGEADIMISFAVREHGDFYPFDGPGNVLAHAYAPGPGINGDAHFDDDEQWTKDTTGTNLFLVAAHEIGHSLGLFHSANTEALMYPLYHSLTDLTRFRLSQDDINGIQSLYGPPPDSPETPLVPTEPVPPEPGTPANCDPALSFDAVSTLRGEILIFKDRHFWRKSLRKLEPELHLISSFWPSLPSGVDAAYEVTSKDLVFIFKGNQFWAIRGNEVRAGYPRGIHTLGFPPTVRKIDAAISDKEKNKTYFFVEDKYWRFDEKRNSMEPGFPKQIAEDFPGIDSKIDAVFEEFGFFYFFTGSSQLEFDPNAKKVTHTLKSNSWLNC

Compound: CN(CC(=O)O)C(=N)N [creatine]
keratin 5 production (keratin 5): can increase keratin 5 production

Compound: CC(=O)Oc1c(C)c(C)c2c(c1C)CCC(C)(CCC[C@H](C)CCC[C@H](C)CCCC(C)C)O2 (stereo partly drawn) [tocopherol acetate]
lipid peroxidation [1]: can inhibit lipid peroxidation

enzymatic activity of MMP-3 (MMP-3): can decrease enzymatic activity
Compound: N-biotinyl-gly-his-lys
production of collagen IV (collagen IV): can increase production
production of fibronectin (fibronectin): can increase production
production of elastin (elastin): can increase production
